Experimental data taken from patent US20120016011A1, “RNA Interference Mediated Inhibition of Connective Tissue Growth Factor (CTGF) Gene Expression Using Short Interfering Nucleic Acid (siNA)” (Merck Sharp & Dohme Corp., priority 2009, published 2012).
[invAb] = inverted abasic unit; m = 2'-O-methyl; r = 2'-OH (RNA); f = 2'-fluoro

Legend:
GAPDH mRNA = GAPDH mRNA reduction (normalizer, check for toxicity) in siNA-transfected NHLF cells; type: cell-based; details: human NHLF cells, mean ± S.D.
Protocol: NHLF (Normal human lung fibroblasts; Lonza cat# CC-2512): Cells were cultured at 37° C. in the presence of 5% CO2 and grown in Fibroblast Basal Medium (Lonza cat# CC-3132) supplemented with 2% FBS and growth factors (provided with the kit) and 100 μg/mL of streptomycin and 100 U/mL penicillin.
Cells were plated in all wells of a tissue-culture treated, 96-well plate at a final count of 5000 cells/well in […], of the appropriate culture media. The cells were cultured for 24 hours after plating at 37° C. in the presence of 5% CO2.
After 24 hours, complexes containing siNA and RNAiMax were created as follows: A solution of RNAiMax diluted 33-fold in OPTI-MEM was prepared. In parallel, solutions of the siNAs for testing were prepared to a final concentration of 120 nM in OPTI-MEM. After incubation of RNAiMax/OPTI-MEM solution at room temperature for 5 min, an equal volume of the siNA solution and the RNAiMax solution were added together for each of the siNAs.
This solution was incubated at room temperature for 20 minutes. After incubation, 20 uL of the solution was added to each of the relevant wells. The final concentration of siNA in each well was 10 nM and the final volume of RNAiMax in each well was 0.3 ul.
The time of incubation with the RNAiMax-siNA complexes was 24 hours and there was no change in media between transfection and harvesting, unless otherwise indicated.
A series of probes and primers were used to detect the various mRNA transcripts of the genes of β-Actin (human cell line only), and of CTGF and GAPDH in mouse and human cell lines. All Taqman probes and primers for the experiments here-in described were supplied as pre-validated sets by Applied Biosystems, Inc. (see Table 3).
The assays were performed on an ABI 7900 instrument, according to the manufacturer's instructions. A TaqMan Gene Expression Master Mix (provided in the Cells-to-CT™, Applied Biosystems, Cat # 4399002) was used. The PCR reactions were carried out at 50° C. for 2 min, 95° C. for 20 min followed by 40 cycles at 95° C. for 15 secs and 60° C. for 1 min.
Additionally, only normalized data, which reflects the general health of the cell and quality of the RNA extraction, was examined. This was done by looking at the level of two different mRNAs in the treated cells, the first being the target mRNA and the second being the normalizer mRNA. This allowed for elimination of siNAs that might be potentially toxic to cells rather than solely knocking down the gene of interest. This was done by comparing the Ct for GAPDH in each well relative to the Ct for the entire plate.

CTGF protein = assay: CTGF Western Blot in siNA-transfected NHLF cells (6-well plate); type: cell-based, human; details: for Mean % KD (30 nM, 72 h) n = 5: CTGF protein; for Mean % KD (30 nM, 72 h) n = 5 / Density (CTGF)/Density (α-Tubulin) (3 pM, 72 hours) / Density (CTGF)/Density (α-Tubulin) (300 pM, 72 hours) / Density (CTGF)/Density (α-Tubulin) (30 nM, 72 hours): NHLF cells; for Density (CTGF)/Density (α-Tubulin) (3 pM, 72 hours) / Density (CTGF)/Density (α-Tubulin) (300 pM, 72 hours): n = 3, ratio ± S.D.; for Density (CTGF)/Density (α-Tubulin) (30 nM, 72 hours): n = 5, ratio ± S.D.; for % Protein Reduction at 30 nM (72 hrs): human NHLF cells, mean ± S.D.
Protocol: NHLF cells were plated in 6-well plates at final counts of 70,000 cells/well in 2 ml of complete growth media. Transfection was performed using 2.5 uL of RNAiMax per well. Final concentration of siNAs was 30 nM (screen) and 30, 0.3, and 0.003 nM (dose response study). Protein lysates were harvested 24, 48, and 72 hours post-transfection (screen) and 72 hours post-transfection (dose response study). Protein lysates were prepared using Cell Extraction Buffer (Invitrogen, cat# FNN0011) according to manufacturer's instructions. Protein concentration was measured using a Bradford Quick Start Kit (Bio-Rad, cat# 500-0205).
The protein source for the Western Blot experiments were from transfection of NHLF cells in a 6 well plate, as described above.
Protein samples were diluted 1:1 in 2× Laemmli buffer with 5% β-mercapto-ethanol and incubated at 95° C. for 5 minutes. 40-50 ug of protein was loaded in each lane of 10% Tris-HCl gel. One lane was designated for MagicMark Protein Standard (Invitrogen # LC5602). The gel was run at 100V for approximately 2 hours. Protein was transferred to a PVDF membrane at 100V for 60 minutes. Once the transfer was finished, the membrane was blocked in 1% Casein in PBS (BioRad Cat#161-0783) for 1 hour on a plate rocker at room temperature followed by the overnight incubation at 4° C. with goat […] anti-CTGF primary antibody (Santa Cruz Biotechnology, cat# L-20) diluted 1:200 in 1% Casein in PBS. On the next day, the blot was washed 4×5 minutes in PBST (0.1% Tween-20 in PBS) solution and incubated for 30 minutes at room temperature with rabbit anti-goat secondary antibody (Pierce Biotechnology, cat# 31402) diluted 1:1,000 in 1% Casein in PBS. Then, the blot was washed 4×5 minutes with PBST and incubated for 1 minute with ECL Western Blotting Substrate (Pierce Biotechnology, Cat# 32106). The bands were visualized on the Bio-Rad VersaDoc Imager.
The protein bands were quantified by computing their density which is defined by the ratio between the total intensity of all pixels and the area of the rectangle drawn around each band (intensity/mm^2). The density was calculated by the BioRad software.
The level of protein was quantified using the Bio-Rad VersaDoc Imager according to the protocols of that piece of equipment. A pixel count was performed in each lane using an area of identical size. Each sample was then compared to the appropriate control treated sample and converted to a percent of protein remaining compared to control.
The effects of lead siNAs on CTGF protein level were compared to the effects of the universal control using a two tail Student's T-test to obtain a P value. P<0.05 was considered significant.
The densities of CTGF bands were normalized to the respective densities of α-Tubulin by calculating the ratio of the density of CTGF band and the density of α-Tubulin band. The ratios of the treatments were then compared to the ratio of the control group using an unpaired t-test with unequal variances.

Substance: 48048-DC: siNA duplex; sense SEQ ID NO: 61 B GAuAGcAucuuAuAcGAGu TTB; antisense SEQ ID NO: 62 ACUcGuAuAAGAuGcuAucUU (sense GAUAGCAUCUUAUACGAGUTT; antisense ACUCGUAUAAGAUGCUAUCUU; sense: DNA at AGT, 2'-fluoro at CU, [invAb] at 5' end, 3' end, backbone not given here; antisense: sugars from the 5' end rrrfmfmfmmmmfmffmffmm, backbone not given here)
- % Reduction GAPDH mRNA at 10 nM (GAPDH mRNA): −2 ± 10%
- Mean % KD (30 nM, 72 h) n = 5 (CTGF protein): 83 ± 10%
- Density (CTGF)/Density (α-Tubulin) (3 pM, 72 hours) (CTGF protein): 0.31 ± 0.2
- Density (CTGF)/Density (α-Tubulin) (300 pM, 72 hours) (CTGF protein): 0.09 ± 0.06
- Density (CTGF)/Density (α-Tubulin) (30 nM, 72 hours) (CTGF protein): 0.10 ± 0.10
- % Protein Reduction at 30 nM (72 hrs) (CTGF protein): 83 ± 10%

Substance: 48042-DC: siNA duplex; sense SEQ ID NO: 49 B GAcAuuAAcucAuuAGAcu TTB; antisense SEQ ID NO: 50 AGUcuAAuGAGuuAAuGucUU (sense GACAUUAACUCAUUAGACUTT; antisense AGUCUAAUGAGUUAAUGUCUU; sense: DNA at AGT, 2'-fluoro at CU, [invAb] at 5' end, 3' end, backbone not given here; antisense: sugars from the 5' end rrrffmmfmmmffmmfmffmm, backbone not given here)
- % Reduction GAPDH mRNA at 10 nM (GAPDH mRNA): −43 ± 32%
- Mean % KD (30 nM, 72 h) n = 5 (CTGF protein): 86 ± 13%
- Density (CTGF)/Density (α-Tubulin) (3 pM, 72 hours) (CTGF protein): 0.45 ± 0.13
- Density (CTGF)/Density (α-Tubulin) (300 pM, 72 hours) (CTGF protein): 0.11 ± 0.06
- Density (CTGF)/Density (α-Tubulin) (30 nM, 72 hours) (CTGF protein): 0.09 ± 0.11
- % Protein Reduction at 30 nM (72 hrs) (CTGF protein): 86 ± 13%

Substance: 48055-DC: siNA duplex; sense SEQ ID NO: 75 B cAAGuuAuuuAAAucuGuu TTB; antisense SEQ ID NO: 76 AACAGAuuuAAAuAAcuuGUU (sense CAAGUUAUUUAAAUCUGUUTT; antisense AACAGAUUUAAAUAACUUGUU; sense: DNA at AGT, 2'-fluoro at CU, [invAb] at 5' end, 3' end, backbone not given here; antisense: sugars from the 5' end rrrmmmfffmmmfmmfffmmm, backbone not given here)
- % Reduction GAPDH mRNA at 10 nM (GAPDH mRNA): −18 ± 4%
- Mean % KD (30 nM, 72 h) n = 5 (CTGF protein): 84 ± 5%
- Density (CTGF)/Density (α-Tubulin) (3 pM, 72 hours) (CTGF protein): 0.28 ± 0.04
- Density (CTGF)/Density (α-Tubulin) (300 pM, 72 hours) (CTGF protein): 0.10 ± 0.06
- Density (CTGF)/Density (α-Tubulin) (30 nM, 72 hours) (CTGF protein): 0.09 ± 0.04
- % Protein Reduction at 30 nM (72 hrs) (CTGF protein): 84 ± 5%

Substance: 48047-DC: siNA duplex; sense SEQ ID NO: 59 B cGAGuAAuAuGccuGcuAu TTB; antisense SEQ ID NO: 60 AUAGcAGGcAuAuuAcucGUU (sense CGAGUAAUAUGCCUGCUAUTT; antisense AUAGCAGGCAUAUUACUCGUU; sense: DNA at AGT, 2'-fluoro at CU, [invAb] at 5' end, 3' end, backbone not given here; antisense: sugars from the 5' end rrrmfmmmfmfmffmfffmmm, backbone not given here)
- % Reduction GAPDH mRNA at 10 nM (GAPDH mRNA): −5 ± 14%
- Mean % KD (30 nM, 72 h) n = 5 (CTGF protein): 58 ± 26%
- Density (CTGF)/Density (α-Tubulin) (3 pM, 72 hours) (CTGF protein): 0.51 ± 0.4
- Density (CTGF)/Density (α-Tubulin) (300 pM, 72 hours) (CTGF protein): 0.17 ± 0.1
- Density (CTGF)/Density (α-Tubulin) (30 nM, 72 hours) (CTGF protein): 0.22 ± 0.13
- % Protein Reduction at 30 nM (72 hrs) (CTGF protein): 58 ± 26%

Substance: 48046-DC: siNA duplex; sense SEQ ID NO: 57 B cAcAGcAccAGAAuGuAuA TTB; antisense SEQ ID NO: 58 UAUAcAuucuGGuGcuGuGUU (sense CACAGCACCAGAAUGUAUATT; antisense UAUACAUUCUGGUGCUGUGUU; sense: DNA at AGT, 2'-fluoro at CU, [invAb] at 5' end, 3' end, backbone not given here; antisense: sugars from the 5' end rrrmfmffffmmfmffmfmmm, backbone not given here)
- % Reduction GAPDH mRNA at 10 nM (GAPDH mRNA): −53 ± 14%
- Mean % KD (30 nM, 72 h) n = 5 (CTGF protein): 82 ± 11%
- Density (CTGF)/Density (α-Tubulin) (3 pM, 72 hours) (CTGF protein): 0.56 ± 0.3
- Density (CTGF)/Density (α-Tubulin) (300 pM, 72 hours) (CTGF protein): 0.13 ± 0.08
- Density (CTGF)/Density (α-Tubulin) (30 nM, 72 hours) (CTGF protein): 0.11 ± 0.10
- % Protein Reduction at 30 nM (72 hrs) (CTGF protein): 82 ± 11%
